Data as given in patent publication US8404651B2, “Compositions and methods for treating viral infections” (priority 2008, dated 2013).
Several values for one entry are separate records, joined by “and”; a condition that tells them apart may be missing. Identical values can stand only once.

Key:
[1] = system: HCV replicon cell line, AVA5 [sub-genomic (CON1), genotype 1b]; experiment: microbe, parasite or virus in culture; type: cell-based; details: Hepatitis C virus
Protocol: Primary anti-HCV assay-Antiviral activity against HCV was assessed in a 3-day assay (Okuse, et al., 2005; Antiviral. Res. 65:23; Korba, et al., 2008, Antiviral Res. 77:56) using the stably-expressing HCV replicon cell line, AVA5 [sub-genomic (CON1), genotype 1b](Blight, et al., 2000, Science 290:1972) maintained as sub-confluent cultures on 96-well plates. Antiviral activity was determined by blot hybridization analysis of intracellular HCV RNA (normalized to the level of cellular B-actin RNA in each culture sample). Cytotoxicity was assessed by neutral red dye uptake in cultures maintained in parallel plates.
EC50, EC90, and CC50 values were calculated by linear regression analysis (MS EXCEL®, QUATTROPRO®) using data combined from all treated cultures Korba & Gerin, 1992, Antivir. Res. 19:55; Okuse, et al., 2005, Antivir. Res. 65:23). Standard deviations for EC50 and EC90 values were calculated from the standard errors generated by the regression analyses. […] The Selectivity index (S.I.) was calculated as CC50/EC50. Recombinant human interferon 2b (PBL laboratories, Inc.) was used as an assay control.
For each combination of agents, three concentration ratios, centered on the use of the compounds at equipotent antiviral concentrations, were used. A dilution series (six three-fold-concentration steps, beginning at the approximate EC90) was then generated with the concentration ratio of the two agents remaining the same in each dilution step. Toxicity analysis was performed as described above for the monotherapies. Analysis of drug interactions in the combination studies was determined by the use of the […] program (Biosoft, Inc., Cambridge, United Kingdom). This program evaluates synergy, additivity, or antagonism by use of several methodologies, including that of Chou and Talalay with a statistical analysis employing the Monte Carlo technique to provide confidence limits, fraction-affected-confidence interval (FA-CI) plots, isobolograms, and median-effect plots. (Belenkii, M. S. Schinazi, R. A method for the analysis of combination therapies with statistical analysis. Antiviral Res. 25, 11, 2005).

[2] = system: replicon cell line containing H/FL-Neo (genotype 1a (H77), full length construct); experiment: Secondary anti-HCV assay: genotype 1a replicon, format of the primary assay; type: cell-based; details: Hepatitis C virus
Text: Res. 19:55; Okuse, et al., 2005, Antivir. Res. 65:23).
Secondary anti-HCV assay—This assay assesses activity against different HCV genotypes using the format described for the primary assay. Activity against the genotype 1b HCV is included for comparison. Currently available is a replicon cell line containing H/FL-Neo (genotype 1a (H77), full length construct) (Blight, et al., 2003, J. Virol. 77:3181).

WP2 uvrA = experiment: In vitro bacterial mutagenicity assay (pre-incubation), strain WP2 uvrA; details: for Number of revertants x1, x2, x3: individual plates
Protocol: (§1) Dispense 100 microliter aliquots of the appropriate bacterial cultures into sample tubes stored on ice. Dispense aliquots of the vehicle, positive controls or dose formulations into the appropriate sample tubes. 2 mL top Agar and HBT cap was added to the sample tube, inverted three times and poured into MG plate. The lid was replaced on the plate and left on a level surface to let the agar harden. The plates were incubated in an incubator for 48 to 72 h. The background lawn and count the number of revertants was checked for each plate.

[3] = In vitro cytotoxicity, HepG2; type: cell-based; details: human, HepG2 cells
[4] = MTT cytotoxicity assay, HFF; type: cell-based; details: human, HFF cells, 24-hour incubation
Protocol: (§2) Cellular cytotoxicity profile of the compounds was carried out against a panel of cell lines. Standard MTT assays were performed in 96-well plates using the Promega CellTiter96 Non-radioactive Cell Proliferation Assay Kit in conjunction with a 96-well Plate Reader (ThermoMax, Molecular devices), and MDBK, Vero, and HFF cell lines (obtained from ATCC). Several controls were employed including the nucleoside analogs 3TC, AZT, and ddC, as well as, media without drugs. SDS was used as a positive cytotoxic control. The compounds were tested in triplicate at concentrations of 100, 300, and 1000 μM. Following a 24-hour incubation of cells with the test substance, the MTT assay was carried out.

TA1535 = experiment: In vitro bacterial mutagenicity assay (pre-incubation), strain TA1535; details: for Number of revertants x1, x2, x3: individual plates
Protocol: as §1

[5] = MTT cytotoxicity assay, MDBK; type: cell-based; details: cattle, MDBK cells, 24-hour incubation
Protocol: as §2

[6] = MTT cytotoxicity assay, Vero; type: cell-based; details: African green monkey, Vero cells, 24-hour incubation
Protocol: as §2

TA100 = experiment: In vitro bacterial mutagenicity assay (pre-incubation), strain TA100; details: for Number of revertants x1, x2, x3: individual plates
Protocol: as §1

[7] = TA1535, absence of S9, 50 μg/plate
[8] = TA1535, absence of S9, 158 μg/plate
[9] = TA1535, absence of S9, 500 μg/plate
[10] = TA1535, absence of S9, 1581 μg/plate
[11] = TA1535, absence of S9, 5000 μg/plate
[12] = TA1535, presence of S9, 50 μg/plate
[13] = TA1535, presence of S9, 158 μg/plate
[14] = TA1535, presence of S9, 500 μg/plate
[15] = TA1535, presence of S9, 1581 μg/plate
[16] = TA1535, presence of S9, 5000 μg/plate
[17] = TA100, absence of S9, 50 μg/plate
[18] = TA100, absence of S9, 158 μg/plate
[19] = TA100, absence of S9, 500 μg/plate
[20] = TA100, absence of S9, 1581 μg/plate
[21] = TA100, absence of S9, 5000 μg/plate
[22] = TA100, presence of S9, 50 μg/plate
[23] = TA100, presence of S9, 158 μg/plate
[24] = TA100, presence of S9, 500 μg/plate
[25] = TA100, presence of S9, 1581 μg/plate
[26] = TA100, presence of S9, 5000 μg/plate

COC1C(OP(=O)(OC[C@H]2O[C@@H](n3cnc4c(N)ncnc43)CC2O)SCOC(=O)OC(C)C)[C@@H](CO)O[C@H]1n1ccc(=O)[nH]c1=O (some centres unmarked) [Compound 2, S-isopropylcarbonyloxymethyl thiophosphate (6k) of 3′dApsU2′OMe]
EC50 ([1]; Ava5, read-out: EC50 HCV type 1B): 1000 nM | EC90 ([1]; Ava5, read-out: EC90 HCV type 1B): 6 µM | EC50 ([2]; read-out: EC50 HCV Type 1A): 2200 nM | EC90 ([2]; read-out: EC90 HCV type 1A): 8 µM | Number of revertants mean (WP2 uvrA; absence of S9, 50 μg/plate): 41 | Number of revertants x1, x2, x3 (WP2 uvrA; absence of S9, 50 μg/plate): 34 and 43 and 45 | Number of revertants mean (WP2 uvrA; absence of S9, 158 μg/plate): 42 | Number of revertants x1, x2, x3 (WP2 uvrA; absence of S9, 158 μg/plate): 49 and 44 and 33 | Number of revertants mean (WP2 uvrA; absence of S9, 500 μg/plate): 34 | Number of revertants x1, x2, x3 (WP2 uvrA; absence of S9, 500 μg/plate): 39 and 26 and 38 | Number of revertants mean (WP2 uvrA; absence of S9, 1581 μg/plate): 50 | Number of revertants x1, x2, x3 (WP2 uvrA; absence of S9, 1581 μg/plate): 44 and 56 and 51 | Number of revertants mean (WP2 uvrA; absence of S9, 5000 μg/plate): 52 | Number of revertants x1, x2, x3 (WP2 uvrA; absence of S9, 5000 μg/plate): 62 and 39 and 54 | Number of revertants mean (WP2 uvrA; presence of S9, 50 μg/plate): 44 | Number of revertants x1, x2, x3 (WP2 uvrA; presence of S9, 50 μg/plate): 48 and 43 and 42 | Number of revertants mean (WP2 uvrA; presence of S9, 158 μg/plate): 43 | Number of revertants x1, x2, x3 (WP2 uvrA; presence of S9, 158 μg/plate): 46 and 43 and 40 | Number of revertants mean (WP2 uvrA; presence of S9, 500 μg/plate): 41 | Number of revertants x1, x2, x3 (WP2 uvrA; presence of S9, 500 μg/plate): 36 and 46 and 40 | Number of revertants mean (WP2 uvrA; presence of S9, 1581 μg/plate): 47 | Number of revertants x1, x2, x3 (WP2 uvrA; presence of S9, 1581 μg/plate): 52 and 43 and 45 | Number of revertants mean (WP2 uvrA; presence of S9, 5000 μg/plate): 62 | Number of revertants x1, x2, x3 (WP2 uvrA; presence of S9, 5000 μg/plate): 61 and 60 and 65 | CC50 [3]: > 100 µM | CC50 at 24 h [4]: > 1 mM | Number of revertants mean (TA1535; [7]): 14 | Number of revertants x1, x2, x3 (TA1535; [7]): 10 and 15 and 16 | Number of revertants mean (TA1535; [8]): 23 | Number of revertants x1, x2, x3 (TA1535; [8]): 21 (2×) and 26 | Number of revertants mean (TA1535; [9]): 17 | Number of revertants x1, x2, x3 (TA1535; [9]): 15 and 20 and 17 | Number of revertants mean (TA1535; [10]): 16 | Number of revertants x1, x2, x3 (TA1535; [10]): 13 and 18 and 17 | Number of revertants mean (TA1535; [11]): 18 | Number of revertants x1, x2, x3 (TA1535; [11]): 18 (2×) and 17 | Number of revertants mean (TA1535; [12]): 19 | Number of revertants x1, x2, x3 (TA1535; [12]): 21 and 15 and 20 | Number of revertants mean (TA1535; [13]): 16 | Number of revertants x1, x2, x3 (TA1535; [13]): 11 and 20 and 16 | Number of revertants mean (TA1535; [14]): 17 | Number of revertants x1, x2, x3 (TA1535; [14]): 19 and 13 and 20 | Number of revertants mean (TA1535; [15]): 22 | Number of revertants x1, x2, x3 (TA1535; [15]): 27 and 21 and 17 | Number of revertants mean (TA1535; [16]): 17 | Number of revertants x1, x2, x3 (TA1535; [16]): 18 and 16 (2×) | CC50 at 24 h [5]: > 1 mM | CC50 at 24 h [6]: > 1 mM | Number of revertants mean (TA100; [17]): 112 | Number of revertants x1, x2, x3 (TA100; [17]): 98 and 112 and 127 | Number of revertants mean (TA100; [18]): 121 | Number of revertants x1, x2, x3 (TA100; [18]): 110 and 133 and 119 | Number of revertants mean (TA100; [19]): 133 | Number of revertants x1, x2, x3 (TA100; [19]): 134 and 127 and 138 | Number of revertants mean (TA100; [20]): 113 | Number of revertants x1, x2, x3 (TA100; [20]): 122 and 107 and 109 | Number of revertants mean (TA100; [21]): 115 | Number of revertants x1, x2, x3 (TA100; [21]): 98 and 126 and 122 | Number of revertants mean (TA100; [22]): 107 | Number of revertants x1, x2, x3 (TA100; [22]): 111 and 109 and 100 | Number of revertants mean (TA100; [23]): 120 | Number of revertants x1, x2, x3 (TA100; [23]): 115 and 133 and 111 | Number of revertants mean (TA100; [24]): 126 | Number of revertants x1, x2, x3 (TA100; [24]): 134 and 137 and 108 | Number of revertants mean (TA100; [25]): 126 | Number of revertants x1, x2, x3 (TA100; [25]): 136 and 122 and 121 | Number of revertants mean (TA100; [26]): 126 | Number of revertants x1, x2, x3 (TA100; [26]): 122 and 130 and 126
